Assay results: patent US8614231B2, “Immunosuppressor based on the blockage of TCR-Nck interaction” (Consejo Superior de Investigaciones Cientificas, priority 2008, dated 2013)
“Also recorded” adds a separate entry of the source.

Columns and labels:
[1] = system: human T lymphocytes; assay: Proliferation of human T lymphocytes stimulated with anti-CD3 antibodies (CFSE, flow cytometry); assay type: cell-based; details: for IC50: Homo sapiens, T-lymphocyte, 120 h, PBMNC, 5 days
Method: For the next round of selection of the compounds resulting from virtual screening with potential for blocking Nck-CD3ε interaction, PBMNC purified from healthy donors were labelled with fluorescence and incubated for 5 days on plates covered with anti-CD3 OKT3 antibodies in the presence of different doses of these compounds. Proliferation of T lymphocytes was evaluated by flow cytometry in accordance with the loss of green fluorescence (CFSE) within the CD8+ population.
(§1) PBMNCs purified from healthy donors were labelled with CFSE and incubated for 5 days on plates coated with anti-CD3 OKT3 antibody in the presence of various doses of the compounds indicated, among them CBM-1. The proliferation was evaluated by flow cytometry in accordance with the loss of green fluorescence (CFSE) within the CD4+ and CD8+ populations. A parallel experiment was performed on the proliferation of human IL2-dependent lymphoblasts. Purified PBMNC from healthy donors were stimulated with PHA for 48 hours and labelled with CFSE. The were subsequently cultured for 3 days in the presence of 100 IU/ml of human recombinant IL2 in the presence of concentrations of the compounds used, particularly CBM-1.

[2] = system: human IL2-dependent lymphoblasts; assay: Proliferation of human IL2-dependent lymphoblasts (IL2R-dependent proliferation); assay type: cell-based; details: at concentrations of 20 μM; 100 IU/ml IL2, 3 days
Method: as §1

[3] = system: OT-I transgenic mouse primary lymphocytes; assay: IL2 production and antigen-induced proliferation of mouse T lymphocytes; assay type: cell-based
Source text: Thus, Nck-CD3ε interaction as a molecular target for immunosuppressor development has been validated.

[4] = system: human T lymphocytes; assay: Cytokine secretion by human T lymphocytes (PBMNC) stimulated with anti-CD3 antibodies; assay type: cell-based; details: for IC50: Homo sapiens, T-lymphocyte, supernatant at 72 hours, anti-CD3
Method: Inhibition by CBM-1 of the secretion of cytokines by human T lymphocytes in response to stimulation with anti-CD3 antibodies. Peripheral blood mononuclear cells (PBMNC) purified from healthy donors were stimulated on plates coated with anti-CD3 OKT3 antibodies in the presence of various doses of CBM-1 for 72 hours. The concentration of the indicated cytokines in the supernatant (IL-10, IFN-γ, and TFN-β) was evaluated by multiparametric flow cytometry (BD cytometric bead array).
The effect of CBM-1 on the production of cytokines was measured in an assay in which human PBMNC were stimulated with anti-CD3 antibodies. The supernatant of these cells was collected at 72 hours and several cytokines were simultaneously measured by a flow cytometry assay.

[5] = system: C57BL/6 mouse spleen cells; assay: Intracellular IFNγ expression by mouse CD4+ T cells stimulated with anti-CD3 + anti-CD28; assay type: cell-based; details: Lymphocyte, anti-CD3 + anti-CD28 48 hours, then brefeldin A 6 hours, read-out: IC50 generation of IFNγ-secreting Th1 lymphocytes
Source text: Intracellular expression of IFNγ in response to stimulation with a mixture of anti-CD3 and anti-CD28.
The cells were first stained with CD4-PE and after fixing and rinsing they were stained with anti-IFNγ antibody.

[6] = system: Human Jurkat T lymphocyte cell line; assay: Toxicity by propidium iodide exclusion and flow cytometry, Jurkat; assay type: cell-based; details: 48 hours, even at the highest dose
Method: (§2) Human Jurkat T lymphocyte cell line and human Raji lymphoblastoid B cell line were incubated with the indicated concentrations of CBM-1 for 48 hours. The toxicity of the compound was estimated by propidium iodide exclusion and flow cytometry. The two cell lines remained with 100% viability after 48 hours, even at the highest dose of the compound.

[7] = system: human Raji lymphoblastoid B cell line; assay: Toxicity by propidium iodide exclusion and flow cytometry, Raji; assay type: cell-based; details: 48 hours, even at the highest dose
Method: as §2

[8] = target: T1, SH3.1 domain of Nckα (Homo sapiens, UniProt P16333); assay: NMR chemical displacements in the SH3.1 domain on compound binding; details: residues Trp41 and Tyr50/Phe53 participate
T1 construct: The three-dimensional structure of the SH3.1 domain of Nckα
Method: Displacements of the amino acid residues in the SH3.1 domain caused by the interaction with compound CBM-1. The lateral chains of the amino acids that changed their position after binding the compound are represented. The changes are consequent to the binding of compound CBM-1 to the pocket visualised in virtual screening.
The three-dimensional structure of the SH3.1 domain of Nckα, in the presence and in the absence of peptide 11R085, was determined in parallel (with the collaboration of the laboratory of Professors María Angeles Jiménez and Manuel Rico, of the Instituto de Química-Física Rocasolano, CSIC, Madrid) (FIG. 6). This enabled validation of the prediction of the structural computer model used for virtual screening. In addition, it allowed measurement of the chemical displacements caused to the structure by compound CBM-1 (FIG. 7).
The displacements of residues in the SH3.1 domain validate the prediction of the interaction of the SH3.1 domain with CBM-1 at a molecular level and are consistent with the model.

[9] = system: T lymphocytes; assay: Inhibitory action on the activation of T lymphocytes (summary statement); assay type: cell-based; details: both in mice and humans; concentrations as low as
Source text: It inhibited the production of IFNγ, IL-10 and TNFβ, as well as the generation of human cells that produce IFNγ in response to anti-CD3 and anti-CD28 in human lymphocytes stimulated with anti-CD3 and anti-CD28 antibodies.

[10] = 72 hours, up to concentrations of 30 μM

- IC50 ([4]; read-out: IC50 IFNγ production): 300 nM
- IC50 ([4]; read-out: IC50 IL10 production): 200 nM
- IC50 ([4]; read-out: IC50 TNFβ production): 200 nM
- IC50 [5]: 800 nM
- binding to the SH3.1 domain (NMR) [8]: binds to a hydrophobic pocket
SMILES: c1ccc(C2=C(CN3CCCCC3)C(c3ccccc3)c3ccccc3O2)cc1 (centres unmarked) [CBM-1]
- IC50 ([1]; anti-CD3 OKT3, CD4+ population, read-out: IC50 proliferation of CD4+ lymphocytes induced by anti-CD3): 2000 nM
- IC50 ([1]; anti-CD3 OKT3, CD8+ population, read-out: IC50 proliferation of CD8+ lymphocytes induced by anti-CD3): 3000 nM
- blocking activity on the proliferation of the lymphocytes (in words) ([1]; anti-CD3 OKT3, 5 days, compounds from virtual screening): highest activity and least toxicity; also recorded: best and least toxic
- inhibition of the proliferation of human IL2-dependent lymphoblasts [2]: did not significantly inhibit
- proliferation of antigen-dependent mouse T lymphocytes (in words) [3]: inhibited
- release of IL2 (in words) ([3]; mouse T lymphocytes): inhibited
- effect on the production of IL5 [4, 10]: did not show any effect; also recorded: no effect
- effect on the production of IL6 [4, 10]: did not show any effect; also recorded: no effect
- effect on the release of IL1-β ([4]; 72 hours, various doses): did not show any effect
- viability [6]: 100%
- viability [7]: 100%
- concentration with inhibitory action on the activation of T lymphocytes [9]: ≥ 0.1 µM
